Columns and labels:
[1] = test system: PI3Kα-WT MEFs; experiment: CellTiter-Glo cell assay, PI3Kα-WT MEFs; format: cell-based, mouse
Protocol: MEFs were seeded at 5000 cells per well in 96-well plates in DMEM supplemented with 10% FBS and 1% P/S, and allowed to attach overnight. The next day, cells were serum starved for 4 h prior to compound treatment in fresh serum-free DMEM. Compounds solubilised in DMSO were diluted 1:2 in a 12-point concentration response curve in DMSO. Intermediate plates were prepared by transferring 4 μl of compounds in DMSO into 96 μl of serum-free DMEM media. This was then used to treat cell plates by transferring 12.5 μl of solution from the intermediate plate into 87.5 μl of serum-free DMEM in the cell plates. […] Cell plates were incubated for 24 h, 48 h or 72 h at 37°C, 5% CO2, followed by determination of cell survival using the CellTiter-Glo® reagent according to manufacturer’s instructions (Promega #G7571). Endpoint luminescence was measured using CLARIOstar (BMG). Compound data were analyzed using GraphPad Prism 8.

[2] = molecular target: T1, PI3Kα G106V mutant (Homo sapiens, UniProt P42336, G106V); experiment: ADP-Glo catalytic activity, oncogenic mutant G106V; format: biochemical
T1 construct: Full-length human p110α was expressed either in a complex with full-length human p85α (for HTS, biochemistry and HDX-MS); 6xHis tag followed by TEV protease site (N); host or cells: Sf9, baculovirus
T1 sequence (P42336 whole entry G106V): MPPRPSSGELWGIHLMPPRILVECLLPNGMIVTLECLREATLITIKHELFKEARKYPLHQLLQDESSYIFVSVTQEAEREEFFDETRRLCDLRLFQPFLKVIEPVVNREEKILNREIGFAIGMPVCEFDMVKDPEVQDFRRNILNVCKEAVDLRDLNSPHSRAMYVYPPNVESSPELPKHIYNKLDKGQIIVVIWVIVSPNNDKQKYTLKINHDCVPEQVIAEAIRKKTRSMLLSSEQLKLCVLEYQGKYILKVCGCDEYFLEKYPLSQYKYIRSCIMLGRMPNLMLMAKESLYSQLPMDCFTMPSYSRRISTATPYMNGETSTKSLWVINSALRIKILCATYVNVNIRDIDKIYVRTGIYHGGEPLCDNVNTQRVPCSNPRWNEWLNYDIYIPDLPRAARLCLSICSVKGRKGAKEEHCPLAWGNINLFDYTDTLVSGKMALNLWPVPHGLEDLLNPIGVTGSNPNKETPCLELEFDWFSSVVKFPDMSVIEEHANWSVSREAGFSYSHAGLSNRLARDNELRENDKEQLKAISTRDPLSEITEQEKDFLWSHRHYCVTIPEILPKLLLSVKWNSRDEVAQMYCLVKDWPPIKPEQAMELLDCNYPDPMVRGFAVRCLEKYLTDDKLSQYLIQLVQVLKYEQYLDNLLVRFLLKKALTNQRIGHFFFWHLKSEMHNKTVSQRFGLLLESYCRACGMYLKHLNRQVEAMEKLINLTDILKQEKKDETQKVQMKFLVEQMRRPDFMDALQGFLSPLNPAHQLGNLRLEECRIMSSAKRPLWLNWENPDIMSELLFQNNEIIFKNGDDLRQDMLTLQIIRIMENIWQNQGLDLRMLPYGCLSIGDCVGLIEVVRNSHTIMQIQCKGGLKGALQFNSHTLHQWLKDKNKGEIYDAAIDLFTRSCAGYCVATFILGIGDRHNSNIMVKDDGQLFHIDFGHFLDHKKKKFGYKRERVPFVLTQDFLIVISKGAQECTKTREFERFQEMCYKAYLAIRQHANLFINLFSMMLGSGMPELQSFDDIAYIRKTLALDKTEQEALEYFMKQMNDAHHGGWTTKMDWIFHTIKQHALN
T1 sequence (P27986 whole entry partner): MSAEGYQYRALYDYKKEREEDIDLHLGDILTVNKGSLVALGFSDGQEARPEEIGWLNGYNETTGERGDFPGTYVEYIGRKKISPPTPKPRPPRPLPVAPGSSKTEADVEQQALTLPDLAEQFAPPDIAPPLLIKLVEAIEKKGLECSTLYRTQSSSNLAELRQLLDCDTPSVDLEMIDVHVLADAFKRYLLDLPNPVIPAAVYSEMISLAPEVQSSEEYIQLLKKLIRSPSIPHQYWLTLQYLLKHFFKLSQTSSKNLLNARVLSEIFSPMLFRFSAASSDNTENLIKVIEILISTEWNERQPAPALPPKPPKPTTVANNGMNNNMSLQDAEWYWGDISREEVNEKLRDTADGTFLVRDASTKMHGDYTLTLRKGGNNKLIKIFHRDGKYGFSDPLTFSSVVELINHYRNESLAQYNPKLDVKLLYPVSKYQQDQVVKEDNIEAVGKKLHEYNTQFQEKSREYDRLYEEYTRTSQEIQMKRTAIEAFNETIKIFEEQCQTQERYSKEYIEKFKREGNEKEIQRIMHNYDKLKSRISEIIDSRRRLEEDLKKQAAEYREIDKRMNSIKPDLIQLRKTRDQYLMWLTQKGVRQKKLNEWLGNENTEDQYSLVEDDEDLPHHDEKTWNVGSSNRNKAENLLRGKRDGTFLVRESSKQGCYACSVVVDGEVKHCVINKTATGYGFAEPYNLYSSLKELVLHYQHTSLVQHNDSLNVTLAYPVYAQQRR
Protocol: (§1) Expression and purification of wild-type p110α (Cambridge MRC Laboratory for Molecular Biology (LMB-MRC) plasmid number OP831) in a complex with full-length p85α (LMB-MRC plasmid OP809) was performed as described. The oncogenic mutants G106V (LMB-MRC plasmid JB35), N345K (LMB-MRC plasmid OP661) and E545K (LMB-MRC plasmid OP663) were also purified using this protocol. Briefly, 10 litres of Spodoptera frugiperda (Sf9) cell culture at a density of 1.0 x 10^6 cells/ml were co-infected with a p85α-encoding virus [LMB-MRC plasmid OP809]. and a virus encoding p110α with an N-terminal 6xHis tag followed by a tobacco etch virus (TEV) protease site [LMB-MRC plasmid OP831]. After a 48 h infection at 27°C, cells were harvested and washed with PBS. […]
(§2) For characterisation of the effects of 1938 on in vitro PI3K enzymology, all reactions were performed at room temperature with 384 white-polystyrene plates (Corning #3574). […] Data was expressed as velocity (nmol of ADP generated/nmol of enzyme/sec). […] Luminescence was read using a PHERAstar® plate reader with software version 5.41, and analyses were performed using GraphPad Prism 8/9.

[3] = molecular target: T2, PI3Kα N345K mutant (Homo sapiens, UniProt P42336, N345K); experiment: ADP-Glo catalytic activity, oncogenic mutant N345K; format: biochemical
T2 construct: Full-length human p110α was expressed either in a complex with full-length human p85α (for HTS, biochemistry and HDX-MS); 6xHis tag followed by TEV protease site (N); host or cells: Sf9, baculovirus
T2 sequence (P42336 whole entry N345K): as the sequence (P42336 whole entry G106V) above, with V106G, N345K counted along it
T2 sequence (P27986 whole entry partner): as the sequence (P27986 whole entry partner) above
Protocol: as §1, §2

[4] = test system: A549 cells; experiment: pAKT S473 ELISA, A549; format: cell-based, human; details: 15 min; 5-10 μM 1938
Protocol: A549 cells were seeded at 50,000 cells per well in 96-well plates in DMEM (10% FBS + 1% P/S). The next day cells were washed once with PBS before addition of serum-free DMEM for 24 h. On the day of treatment, cells were incubated in fresh serum-free DMEM prior to treatment. Compounds solubilised to 10 mM in DMSO were diluted 1:3 in an 8-point concentration response curve in DMSO. Concentration response curves were diluted in serum-free DMEM by transfer into intermediate plates using a BRAVO liquid handler (Agilent). Intermediate plates were then used to treat cell plates using the BRAVO liquid handler. […] Cell plates were treated for 15 min at 37°C, 5% CO2 before being washed with ice-cold PBS and lysed in lysis buffer […] Systems #895561) and freezing at -80°C. Levels of pAKT^S473 were determined using the phospho-AKT (S473) pan-specific Duoset IC ELISA (R&D Systems #DY[…]) in 96-well white high-binding plates (Corning #3922) according to manufacturer's instructions. Endpoint luminescence was measured using a Sense (Hidex) platereader. […] Data were transformed and EC50 data were determined by variable slope (4 parameters) non-linear regression using Prism 7 (Graphpad).

Compound: CCN1CCN(c2ccc(Nc3cc(Nc4cccc5c4N(C(C)=O)CC5)ccn3)cc2)CC1 [Compound 1938]
- concentrations with a decrease in ATP levels (PI3Kα-independent effects) ([1]; 24h): > 7.5 µM
- concentration from which non-PI3Kα-dependent effects are observed ([1]; 48h and 72h incubation, PI3Kα-WT and PI3Kα-KO MEFs): 2 to 4 µM
- EC50 ([1]; Mus musculus, 24h treatment, read-out: EC50 of increase in metabolic activity (ATP content)): ~500 nM
- activation of G106V mutant [2]: levels comparable with stimulation with pY
- activation of N345K mutant [3]: levels comparable with stimulation with pY
- pAKT^S473 generation [4]: ~ 200 % of Emax of 1 μM insulin

From publication PMC7614683, “A small molecule PI3Kα activator for cardioprotection and neuroregeneration” (Nature, 2023)
